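Dose response: 5 concentrations. Exposure: 48 h. Format: 96-well plates. Endpoint: linear interpolation; highest concentration if not reached. GI50: concentration for 50% inhibition of growth. TGI is the concentration that stops growth completely.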
How the values were obtained:
Assay in all cases: NCI anticancer screen, dose series, 48 h
[1] = tested on: A549 NSCLC
[2] = tested on: ACHN renal
[3] = tested on: HCT-116 colon
[4] = tested on: SF-268 CNS
[5] = tested on: SF-295 CNS
[6] = tested on: SN12C renal
[7] = tested on: SR leukemia
[8] = tested on: TK-10 renal
[9] = tested on: M14 melanoma
[10] = tested on: MCF7 breast

| Compound | TGI [1] [µM] | TGI [2] [µM] | TGI [3] [µM] | TGI [4] [µM] | TGI [5] [µM] | TGI [6] [µM] | TGI [7] [µM] | TGI [8] [µM] | TGI [9] [µM] | GI50 [1] [µM] | GI50 [2] [µM] | GI50 [3] [µM] | GI50 [9] [µM] | GI50 [4] [µM] | GI50 [5] [µM] | GI50 [6] [µM] | GI50 [7] [µM] | GI50 [8] [µM] | GI50 [10] [µM] | TGI [10] [µM] |
| --- | --- | --- | --- | --- | --- | --- | --- | --- | --- | --- | --- | --- | --- | --- | --- | --- | --- | --- | --- | --- |
| CCOC(=O)c1ccc(N2C(=O)/C(=C\OC)c3ccccc3C2=O)cc1 | > 100 | > 100 | > 100 | > 100 | > 100 | > 100 | > 100 | > 100 |  |  |  |  |  |  |  |  |  |  |  |  |
| CC(C)(C)[C@H]1CO[C@]2(C)[C@@H]3C[C@@H]3C(=O)N12 | > 100 | > 100 | > 100 | > 100 | > 100 | > 100 | > 100 | > 100 | > 100 |  |  |  |  |  |  |  |  |  |  |  |
| N.N.NC(CS)C(=O)[O-].NC(CS)C(=O)[O-].[Pt+4] (centres undefined) | > 50 | > 50 | > 50 | > 50 | > 50 | > 50 | > 50 | > 50 | > 50 | > 50 | > 50 | > 50 | > 50 | > 50 | > 50 | > 50 | > 50 | > 50 |  |  |
| ON=C1CCC(c2ccccc2)CC1 (centres undefined) | > 100 | > 100 | > 100 | > 100 | > 100 | > 100 |  | > 100 | > 100 |  |  |  |  |  |  |  |  |  |  |  |
| O=C1c2ccccc2-c2c1c1ccccc1c(=O)n2CCNCCNCCn1c2c(c3ccccc3c1=O)C(=O)c1ccccc1-2 | > 38.2 | 17 | 1.42 | 10 | 10.8 | 14.1 |  | 4.11 | 33.4 | 0.231 | 0.0217 | 0.0159 | 2.58 | 0.241 | 0.0917 | 0.13 |  | 1.06 | 0.109 | 1.06 |
| c1ccc(N=C2c3ccccc3C3=NCCCN32)cc1 | > 100 | > 100 | > 100 | > 100 | > 100 | > 100 |  | > 100 | > 100 |  |  |  |  |  |  |  |  |  |  |  |
| Cc1cc(C)nc(Nc2nc3ccc([N+](=O)[O-])cc3[nH]2)n1 | > 100 | > 100 | > 100 | > 100 | > 100 | > 100 | > 100 | > 100 | > 100 |  |  |  |  |  |  |  |  |  |  |  |
| COc1cc2c(/C=C3/C(=O)Nc4ccccc43)c(Cl)n(Cc3ccccc3[N+](=O)[O-])c2cc1C | > 100 | 19.6 | 18.6 | > 100 | 22.8 | 56.1 |  | 34.1 | 30.2 | 7.8 | 4.95 | 2.71 | 6.35 | 24 | 6.9 | 9.42 |  | 12.4 | 5.46 | > 100 |
| CC(=O)/C=C/c1ccc(C2CC(C)=Nc3c(ccc4c3C(=O)c3ccccc3C4=O)N2)cc1 (centres undefined) | > 100 | > 100 | > 100 | > 100 | > 100 | > 100 | > 100 | > 100 | > 100 |  |  |  |  |  |  |  |  |  |  |  |
| O=c1cc(-c2ccccc2)nc2n1CCN2Cc1ccccc1 | > 100 | 76.7 | > 100 | > 100 | 72.2 | > 100 |  | 95.7 | > 100 | 35.2 | 25 | 31.6 | 37.9 | 46.9 | 21.1 | 32.2 |  | 26.5 | 41.9 | > 100 |
| C[N+](C)(CCCCCC[N+](C)(C)CCCN1C(=O)c2cc3ccccc3cc2C1=O)CCCN1C(=O)c2ccccc2C1=O | > 37.5 | > 37.5 | > 37.5 | > 37.5 | > 37.5 | > 37.5 |  | > 37.5 | > 37.5 | > 37.5 | > 37.5 | > 37.5 | > 37.5 | > 37.5 | > 37.5 | > 37.5 |  | > 37.5 | > 37.5 | > 37.5 |
| O=C(O)C12C3CCCC1C2CC3 (centres undefined) | > 100 | > 100 | > 100 | > 100 | > 100 | > 100 | > 100 | > 100 | > 100 |  |  |  |  |  |  |  |  |  |  |  |
| Nc1c(-c2nc3ccccc3[nH]2)sc(=S)n1-c1ccccc1 | > 100 | > 100 | > 100 | > 100 | > 100 | > 100 | 86.5 |  | > 100 |  |  |  |  |  |  |  |  |  |  |  |
| O=C(c1ccccc1)c1c(C(=O)c2ccccc2)c(-c2ccccc2)c2c(-c3ccccc3)sc(-c3ccccc3)c2c1-c1ccccc1 | > 100 | > 100 | > 100 | > 100 | > 100 | > 100 |  | > 100 | > 100 |  |  |  |  |  |  |  |  |  |  |  |
| Nc1ccccc1C#C/C=C\C#Cc1ccc(Cl)cc1Cl | 44.2 | 41.7 | 24.9 | 23.7 | 20 | 30.5 |  | 26.8 | 34.4 | 16 | 20.9 | 12 | 14.7 | 4.38 | 5.17 | 14.4 |  | 11.6 | 3.52 | 39.7 |
| O=C(O)c1cc2c(cn1)[nH]c1ccccc12 | > 100 | > 100 | > 100 | > 100 | > 100 | > 100 | > 100 | > 100 | > 100 |  |  |  |  |  |  |  |  |  |  |  |
| CC(C(=O)Oc1ccc2ccccc2c1-c1c(O)ccc2ccccc12)c1ccccc1 (centres undefined) | 30 | 26.6 | 25.6 |  | 25.6 | 29.7 |  | 32.8 | 27.7 |  |  |  |  |  |  |  |  |  |  |  |
| COC(=O)c1c(CC#N)cccc1CC#N | > 100 | > 100 | > 100 | > 100 | > 100 | > 100 | > 100 |  | > 100 |  |  |  |  |  |  |  |  |  |  |  |
| CC(c1cccc2ccccc12)/[N+]([O-])=C/c1ccccc1 (centres undefined) | > 100 | > 100 | > 100 | > 100 | > 100 |  |  | > 100 |  |  |  |  |  |  |  |  |  |  |  |  |

Reference: PubChem BioAssay (NCI)
